From PMC6222544, “Fragment-Based Lead Generation of 5-Phenyl-1H-pyrazole-3-carboxamide Derivatives as Leads for Potent Factor Xia Inhibitors” (Molecules : A Journal of Synthetic Chemistry and Natural …, 2018)
pKi: −log10 of the molar value. Where two headings read alike, the source gives them in different places.

Legend:
human FXIa = target: T1, human FXIa (Homo sapiens, UniProt P03951); assay: Inhibition of FXIa in vitro (chromogenic substrate assay); format: biochemical
T1 construct: purchased Haematologic Technologies, Essex Junction, VT, USA
Method: The negative controlwas composed of the same mixed solutions except replacing test compound with DMSO. […] The IC50 was calculated by IBM SPSS Statistics 22.0 (IBM Inc., North Castle, NY, USA) and the Probit function in it. IC50 values were converted to Ki values by the followingrelationship:Ki = IC50/(1 + [S]/Km)

[1] = human FXIa, chromogenic substrate BIOPHEN CS-21(66), 37 °C, pH 7.4, Ki = IC50/(1 + [S]/Km), read-out: Ki
[2] = Table 1 values, read-out: FXIa inhibitory potency (Ki)

T1 sequence (P03951 388-625 limits assumed): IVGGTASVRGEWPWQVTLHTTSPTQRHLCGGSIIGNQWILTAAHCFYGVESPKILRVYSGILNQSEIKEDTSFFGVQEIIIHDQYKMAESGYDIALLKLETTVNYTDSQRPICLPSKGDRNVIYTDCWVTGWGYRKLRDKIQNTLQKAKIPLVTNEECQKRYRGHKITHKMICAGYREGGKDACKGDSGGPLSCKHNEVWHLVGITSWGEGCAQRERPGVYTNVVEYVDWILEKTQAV
T1 sequence (P03951 19-387 partner limits assumed): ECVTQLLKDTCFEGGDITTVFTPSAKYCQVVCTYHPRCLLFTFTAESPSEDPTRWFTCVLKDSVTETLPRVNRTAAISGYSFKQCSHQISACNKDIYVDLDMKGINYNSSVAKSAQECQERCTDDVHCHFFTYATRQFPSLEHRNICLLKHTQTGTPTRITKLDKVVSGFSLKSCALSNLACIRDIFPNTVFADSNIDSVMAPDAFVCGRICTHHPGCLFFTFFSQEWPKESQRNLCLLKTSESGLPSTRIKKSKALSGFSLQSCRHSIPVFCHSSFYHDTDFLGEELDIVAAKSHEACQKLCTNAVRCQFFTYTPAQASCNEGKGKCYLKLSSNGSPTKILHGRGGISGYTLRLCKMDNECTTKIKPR

| Structure (SMILES) | pKi (human FXIa; [1]) | melting point | pKi (human FXIa; [2]) |
| --- | --- | --- | --- |
| O=C(O)c1ccc(NC(=O)[C@H](Cc2ccccc2)NC(=O)c2cc(-c3cccc(Cl)c3)[nH]n2)cc1 [Compound 7a, (S)-4-(2-(5-(3-Chlorophenyl)-1H-pyrazole-3-carboxamido)-3-phenylpropanamido)benzoic acid] | 4.33 | 147 to 149 °C (dec.) | – |
| O=C(O)c1ccc(NC(=O)[C@H](Cc2ccccc2)NC(=O)c2cc(-c3ccccc3)[nH]n2)cc1 [Compound 7b, (S)-4-(3-Phenyl-2-(5-phenyl-1H-pyrazole-3-carboxamido)propanamido)benzoic acid] | < 4.07 | 137 to 139 °C (dec.) | – |
| O=C(O)c1ccc(NC(=O)[C@H](Cc2ccccc2)NC(=O)c2cc(-c3ccccc3F)[nH]n2)cc1 [Compound 7c, (S)-4-(2-(5-(2-Fluorophenyl)-1H-pyrazole-3-carboxamido)-3-phenylpropanamido)benzoic acid] | < 4.07 | 86 to 88 °C (dec.) | – |
| O=C(O)c1ccc(NC(=O)[C@H](Cc2ccccc2)NC(=O)c2cc(-c3ccccc3Cl)[nH]n2)cc1 [Compound 7d, (S)-4-(2-(5-(2-Chlorophenyl)-1H-pyrazole-3-carboxamido)-3-phenylpropanamido)benzoic acid] | < 4.07 | 92 to 94 °C (dec.) | – |
| O=C(O)c1ccc(NC(=O)[C@H](Cc2ccccc2)NC(=O)c2cc(-c3ccc(Cl)cc3)[nH]n2)cc1 [Compound 7e, (S)-4-(2-(5-(4-Chlorophenyl)-1H-pyrazole-3-carboxamido)-3-phenylpropanamido)benzoic acid] | < 4.07 | 174 to 176 °C (dec.) | – |
| O=C(O)c1ccc(NC(=O)[C@H](Cc2ccccc2)NC(=O)c2cc(-c3cccc(Cl)c3F)[nH]n2)cc1 [Compound 7f, (S)-4-(2-(5-(3-Chloro-2-fluorophenyl)-1H-pyrazole-3-carboxamido)-3-phenylpropanamido)benzoic acid] | 4.53 | 185 to 187 °C (dec.) | – |
| O=C(O)c1ccc(NC(=O)[C@H](Cc2ccccc2)NC(=O)c2cc(-c3ccc(Cl)cc3F)[nH]n2)cc1 [Compound 7g, (S)-4-(2-(5-(4-Chloro-2-fluorophenyl)-1H-pyrazole-3-carboxamido)-3-phenylpropanamido)benzoic acid] | < 4.07 | 143 to 145 °C (dec.) | – |
| O=C(O)c1ccc(NC(=O)[C@H](Cc2ccccc2)NC(=O)c2cc(-c3cc(Cl)ccc3F)[nH]n2)cc1 [Compound 7h, (S)-4-(2-(5-(5-Chloro-2-fluorophenyl)-1H-pyrazole-3-carboxamido)-3-phenylpropanamido)benzoic acid] | < 4.07 | 179 to 181 °C (dec.) | – |
| O=C(O)c1ccc(NC(=O)[C@H](Cc2ccccc2)NC(=O)c2cc(-c3c(F)cccc3Cl)[nH]n2)cc1 [Compound 7i, (S)-4-(2-(5-(2-Chloro-6-fluorophenyl)-1H-pyrazole-3-carboxamido)-3-phenylpropanamido)benzoic acid] | < 4.07 | 203 to 205 °C (dec.) | – |
| O=C(O)c1ccc(NC(=O)[C@H](Cc2ccccc2)NC(=O)c2cc(-c3c(F)cccc3F)[nH]n2)cc1 [Compound 7j, (S)-4-(2-(5-(2,6-Difluorophenyl)-1H-pyrazole-3-carboxamido)-3-phenylpropanamido)benzoic acid] | < 4.07 | 205 to 207 °C (dec.) | – |
| O=C(O)c1ccc(NC(=O)[C@H](Cc2ccccc2)NC(=O)c2cc(-c3c(F)ccc(Cl)c3F)[nH]n2)cc1 [Compound 7k, (S)-4-(2-(5-(3-Chloro-2,6-difluorophenyl)-1H-pyrazole-3-carboxamido)-3-phenylpropanamido)benzoicacid] | 4.54 | 129 to 131 °C (dec.) | – |
| O=C(O)c1ccc(NC(=O)[C@H](Cc2ccccc2)NC(=O)c2cc(-c3c(F)cc(Cl)cc3F)[nH]n2)cc1 [Compound 7l, (S)-4-(2-(5-(4-Chloro-2,6-difluorophenyl)-1H-pyrazole-3-carboxamido)-3-phenylpropanamido)benzoic acid] | < 4.07 | 123 to 125 °C (dec.) | – |
| Cc1c(C(=O)N[C@@H](Cc2ccccc2)C(=O)Nc2ccc(C(=O)O)cc2)n[nH]c1-c1cccc(Cl)c1 [Compound 7m, (S)-4-(2-(5-(3-Chlorophenyl)-4-methyl-1H-pyrazole-3-carboxamido)-3-phenylpropanamido)benzoic acid] | 4.43 | 164 to 166 °C (dec.) | – |
| CCc1c(C(=O)N[C@@H](Cc2ccccc2)C(=O)Nc2ccc(C(=O)O)cc2)n[nH]c1-c1cccc(Cl)c1 [Compound 7n, (S)-4-(2-(5-(3-Chlorophenyl)-4-ethyl-1H-pyrazole-3-carboxamido)-3-phenylpropanamido)benzoic acid] | < 4.07 | 126 to 128 °C (dec.) | – |
| O=C(O)c1cc2cc(NC(=O)[C@H](Cc3ccccc3)NC(=O)c3cc(-c4cccc(Cl)c4F)n[nH]3)ccc2[nH]1 [Compound 7o, (S)-5-(2-(3-(3-Chloro-2-fluorophenyl)-1H-pyrazole-5-carboxamido)-3-phenylpropanamido)-1H-indole-2-carboxylic acid] | – | 172 to 174 °C (dec.) | 5.71 |
| O=C(O)c1cc2cc(NC(=O)[C@H](Cc3ccccc3)NC(=O)c3cc(-c4c(F)ccc(Cl)c4F)n[nH]3)ccc2[nH]1 [Compound 7p, (S)-5-(2-(3-(3-Chloro-2,6-difluorophenyl)-1H-pyrazole-5-carboxamido)-3-phenylpropanamido)-1H-indole-2-carboxylic acid] | 5.08 | 164 to 166 °C (dec.) | – |
| Cc1c(C(=O)N[C@@H](Cc2ccccc2)C(=O)Nc2ccc3[nH]c(C(=O)O)cc3c2)n[nH]c1-c1cccc(Cl)c1 [Compound 7q, (S)-5-(2-(3-(3-Cchlorophenyl)-4-methyl-1H-pyrazole-5-carboxamido)-3-phenylpropanamido)-1H-indole-2-carboxylic acid] | 5.05 | 154 to 156 °C (dec.) | – |
| O=C(O)c1cc2cc(NC(=O)[C@H](Cc3ccc(F)cc3)NC(=O)c3cc(-c4cccc(Cl)c4F)n[nH]3)ccc2[nH]1 [Compound 7s, (S)-5-(2-(3-(3-Chloro-2-fluorophenyl)-1H-pyrazole-5-carboxamido)-3-(4-fluorophenyl)propanamido)-1H-indole-2-carboxylic acid] | – | 186 to 188 °C (dec.) | 6.03 |
| O=C(O)c1cc2cc(NC(=O)[C@H](Cc3cccc(F)c3)NC(=O)c3cc(-c4cccc(Cl)c4F)n[nH]3)ccc2[nH]1 [Compound 7t, (S)-5-(2-(3-(3-Chloro-2-fluorophenyl)-1H-pyrazole-5-carboxamido)-3-(3-fluorophenyl)propanamido)-1H-indole-2-carboxylic acid] | – | 174 to 176 °C (dec.) | 5.78 |
| O=C(O)c1cc2cc(NC(=O)[C@H](Cc3ccncc3)NC(=O)c3cc(-c4cccc(Cl)c4F)n[nH]3)ccc2[nH]1 [Compound 7u, (S)-5-(2-(3-(3-Chloro-2-fluorophenyl)-1H-pyrazole-5-carboxamido)-3-(pyridin-4-yl)propanamido)-1H-indole-2-carboxylic acid] | – | 199 to 201 °C (dec.) | 4.88 |
| O=C(O)c1cc2cc(NC(=O)[C@H](Cc3cccnc3)NC(=O)c3cc(-c4cccc(Cl)c4F)n[nH]3)ccc2[nH]1 [Compound 7v, (S)-5-(2-(3-(3-Chloro-2-fluorophenyl)-1H-pyrazole-5-carboxamido)-3-(pyridin-3-yl)propanamido)-1H-indole-2-carboxylic acid] | – | 175 to 177 °C (dec.) | 5.45 |
| O=C(O)c1cc2cc(NC(=O)[C@H](Cc3ccccn3)NC(=O)c3cc(-c4cccc(Cl)c4F)n[nH]3)ccc2[nH]1 [Compound 7w, (S)-5-(2-(3-(3-Chloro-2-fluorophenyl)-1H-pyrazole-5-carboxamido)-3-(pyridin-2-yl)propanamido)-1H-indole-2-carboxylic acid] | – | 192 to 194 °C (dec.) | 5.05 |
| CC(=O)N1CCN(C(=O)C[C@H](NC(=O)c2cc(-c3cccc(Cl)c3F)[nH]n2)C(=O)Nc2ccc3[nH]c(C(=O)O)cc3c2)CC1 [Compound 7x, (S)-5-(4-(4-Acetylpiperazin-1-yl)-2-(5-(3-chloro-2-fluorophenyl)-1H-pyrazole-3-carboxamido)-4-oxobutanamido)-1H-indole-2-carboxylic acid] | – | – | 4.09 |
| O=C(O)c1cc2cc(NC(=O)[C@H](CC(=O)N3CCOCC3)NC(=O)c3cc(-c4cccc(Cl)c4F)n[nH]3)ccc2[nH]1 [Compound 7y, (S)-5-(2-(3-(3-Chloro-2-fluorophenyl)-1H-pyrazole-5-carboxamido)-4-morpholino-4-oxobutanamido)-1H-indole-2-carboxylic acid] | – | 175 to 177 °C (dec.) | 4.19 |
| Nc1ccc(C[C@H](NC(=O)c2cc(-c3cccc(Cl)c3F)[nH]n2)C(=O)Nc2ccc3[nH]c(C(=O)O)cc3c2)cc1 [Compound 7z, (S)-5-(3-(4-Aminophenyl)-2-(5-(3-chloro-2-fluorophenyl)-1H-pyrazole-3-carboxamido)propanamido)-1H-indole-2-carboxylic acid] | 5.39 | 209 to 211 °C (dec.) | – |
| CN1CCN(C(=O)Nc2ccc(C[C@H](NC(=O)c3cc(-c4cccc(Cl)c4F)[nH]n3)C(=O)Nc3ccc4[nH]c(C(=O)O)cc4c3)cc2)CC1 [Compound 7zb, (S)-5-(2-(5-(3-Chloro-2-fluorophenyl)-1H-pyrazole-3-carboxamido)-3-(4-(4-methylpiperazine-1-carboxamido)phenyl)propanamido)-1H-indole-2-carboxylic acid] | 5.71 | 203 to 205 °C (dec.) | – |
